Assay results taken from patent publication US20160137746A1, “METHODS FOR TREATING HIGH CARDIOVASCULAR RISK PATIENTS WITH HYPERCHOLESTEROLEMIA” (Sanofi Biotechnology, priority 2014, published 2016).
Where “and” joins values, the source holds several entries; their conditions need not be identical. Equal entries are not always repeated.

System: high cardiovascular risk patients with hypercholesterolemia
Assay: ODYSSEY LONG TERM: lipid efficacy of alirocumab 150 mg Q2W vs placebo
Format: in vivo, human
Conditions: for Percent change from baseline in calculated LDL-C at week 24 (%), LS means (SE) / Percent change from baseline in calculated LDL-C at week 24, LS mean difference (SE) vs placebo / Calculated LDL-C percent change from baseline, LS mean (SE): ITT population; for Percent change from baseline in calculated LDL-C at week 24 (%), LS means (SE) / Percent change from baseline in calculated LDL-C at week 24, LS mean difference (SE) vs placebo: 150 Q2W; for Calculated LDL-C percent change from baseline, LS mean (SE): MMRM, alirocumab 150 Q2W
Experimental: Patients were stratified according to heFH population, prior history of MI or ischemic stroke, statin treatment and geographic region. Patients at high cardiovascular risk were defined as 1) having heFH (who may or may not have CHD/CHD risk equivalents) or 2) no prior diagnosis of heFH but having hypercholesterolemia together with established CHD or CHD risk equivalents.
Primary analyses of efficacy endpoints were conducted using an ITT approach (based on the ITT population defined above), including all lipid data, regardless of whether the patient was continuing therapy or not. This corresponds to ITT estimands, defined for primary and key secondary endpoints. In addition, analyses were also conducted using an on-treatment approach (based on the mITT population defined above), including lipid data collected during the efficacy treatment period. This corresponds to on-treatment estimands of key secondary endpoints.
With regards to the primary efficacy analysis (ITT approach), the percent change in calculated LDL-C from baseline to Week 24 was analyzed using a mixed-effect model with repeated measures (MMRM) approach. All post-baseline data available from Week 4 to Week 52 analysis windows were used and missing data were accounted for by the MMRM. […] This model provided baseline adjusted least-squares means (LSmeans) estimates at Week 24 for both treatment groups with their corresponding SEs and 95% confidence intervals.
Continuous secondary variables anticipated to have a normal distribution (i.e., lipids other than TGs and Lp(a)) were analyzed using the same MMRM model as for the primary endpoint. […] Combined estimate for mean in both treatment groups, as well as the differences of these estimates, with their corresponding SEs, 95% Cls and p-value were provided (through SAS MIANALYZE procedure).
Binary secondary efficacy endpoints were analyzed using multiple imputation approach for handling of missing values followed by stratified logistic regression with treatment group as main effect and corresponding baseline value(s) as covariate, stratified by randomization factors (as per IVRS). Combined estimates of odds ratio versus placebo, 95% CI, and p-value were provided (through SAS MIANALYZE procedure).

[1] = On-treatment analysis, 150 Q2W (N = 1523)
[2] = On-treatment analysis, 150 Q2W (N = 1523), combined estimate for adjusted mean (SE)
[3] = Pattern Mixture Model sensitivity analysis, 150 Q2W (N = 1523)
[4] = Week 24, free PCSK9 levels at or above the median
[5] = Week 24, free PCSK9 levels below the median

With “Alirocumab: human anti-PCSK9 antibody; HCVR SEQ ID NO:1, LCVR SEQ ID NO:6; CDRs SEQ ID NOs 2/3/4/7/8/10” the “Percent change from baseline in calculated LDL-C at week 24 (%), LS means (SE)” value (HeFH population (271 patients)) was −56.3 (1.9) %, the “Percent change from baseline in calculated LDL-C at week 24, LS mean difference (SE) vs placebo” value (HeFH population) was −63.2 (2.9) % and the “Calculated LDL-C percent change, LS mean difference vs placebo” value (ITT, Week 24) was −61.9%. For the same substance, the “Calculated LDL-C, LS mean percent change from baseline” value (ITT, Week 24) was −61.0%, the “Measured LDL-C, LS mean percent change from baseline” value (ITT, Week 24) was −61.3% and the “Very high CV risk or high CV risk patients who reached calculated LDL-C <70 mg/dL or <100 mg/dL, respectively” value (ITT, Week 24) was 80.7%. For the same substance, the “Proportion of patients reaching calculated LDL-C <70 mg/dL” value (ITT, Week 24, listed as alirocumab) was 79.3% and 79%, the “Percent change from baseline in calculated LDL-C at week 24 (%), LS means (SE)” value (Non-HeFH population (1259 patients)) was −62.1 (0.8) % and the “Percent change from baseline in calculated LDL-C at week 24, LS mean difference (SE) vs placebo” value (Non-HeFH population) was −61.5 (1.4) %. For the same substance, the “Apo A1, LS mean (SE) change from baseline to Week 24 (%)” value [1] was 4.2 (0.4) %, the “Apo A1, LS mean difference (SE) vs placebo, percent change from baseline at Week 24” value [1] was 2.9 (0.7) % and the “Apo B, LS mean (SE) change from baseline to Week 24 (%)” value [1] was −54.3 (0.7) %. For the same substance, the “Apo B, LS mean difference (SE) vs placebo, percent change from baseline at Week 24” value [1] was −55.5 (1.2) %, the “Calculated LDL-C, LS mean (SE) change from baseline to Week 24 (%)” value [1] was −62.8 (0.7) % and the “Calculated LDL-C, LS mean difference (SE) vs placebo, percent change from baseline at Week 24” value [1] was −63.5 (1.2) %. For the same substance, the “HDL-C, LS mean (SE) change from baseline to Week 24 (%)” value [1] was 4.2 (0.4) %, the “HDL-C, LS mean difference (SE) vs placebo, percent change from baseline at Week 24” value [1] was 4.9 (0.7) % and the “Non-HDL-C, LS mean (SE) change from baseline to Week 24 (%)” value [1] was −53.1 (0.6) %. The “Non-HDL-C, LS mean difference (SE) vs placebo, percent change from baseline at Week 24” value [1] was −53.7 (1.0) %, the “Total cholesterol, LS mean (SE) change from baseline to Week 24 (%)” value [1] was −38.8 (0.5) % and the “Total cholesterol, LS mean difference (SE) vs placebo, percent change from baseline at Week 24” value [1] was −38.4 (0.8) %. For the same substance, the “Lipoprotein (a), LS mean difference (SE) vs placebo, percent change from baseline at Week 24” value [2] was −26.3 (1.3) %, the “Lipoprotein (a), change from baseline to Week 24 (%)” value [2] was −30.2 (0.7) % and the “Triglycerides, LS mean difference (SE) vs placebo, percent change from baseline at Week 24” value [2] was −17.2 (1.4) %. The “Triglycerides, change from baseline to Week 24 (%)” value [2] was −15.8 (0.8) %, the “Calculated LDL-C percent change, LS mean difference vs placebo” value (On-treatment, Week 24) was −63.5% and the “Proportion of patients reaching calculated LDL-C <70 mg/dL” value (On-treatment, Week 24) was 81.2%. For the same substance, the “Very high CV risk or high CV risk patients who reached calculated LDL-C <70 mg/dL or <100 mg/dL, respectively” value (On-treatment, Week 24) was 82.8%, the “Calculated LDL-C, LS mean (SE) change from baseline to Week 24 (%)” value [3] was −57.8 (0.8) % and the “Calculated LDL-C, LS mean difference (SE) vs placebo, percent change from baseline at Week 24” value [3] was −58.5 (1.3) %. The “Calculated LDL-C percent change from baseline, LS mean (SE)” value (“Calculated LDL-C percent change … (SE)” below) (Week 4) was −64.8%, the “Calculated LDL-C percent change … (SE)” value (Week 8) was −65.8% and the “Apo-B - Percent change from baseline to Week 12, LS mean difference vs. placebo” value (Week 12, ITT) was “placebo of −56%”. The “Apolipoprotein A1 - Percent change from baseline to Week 12, LS mean difference vs. placebo” value (Week 12, ITT) was “placebo of 4%”, the “Calculated LDL-C - Percent change from baseline to Week 12, LS mean difference vs. placebo” value (Week 12, ITT) was “placebo of −64.8%” and the “Fasting TGs - Percent change from baseline to Week 12, combined estimate for adjusted mean difference vs. placebo” value (Week 12, ITT) was “vs. placebo of −17.9%”. The “HDL-C - Percent change from baseline to Week 12, LS mean difference vs. placebo” value (Week 12, ITT) was “placebo of 5.6%”, the “Lp(a) - Percent change from baseline to Week 12, combined estimate for adjusted mean difference vs. placebo” value (Week 12, ITT) was “vs. placebo of −25.1%” and the “Non-HDL-C - Percent change from baseline to Week 12, LS mean difference vs. placebo” value (Week 12, ITT) was “placebo of −54.6%”. The “Total-C - Percent change from baseline to Week 12, LS mean difference vs. placebo” value (Week 12, ITT) was “placebo of −39%”, the “Calculated LDL-C percent change … (SE)” value (Week 12) was −63.3% and the “Calculated LDL-C - Percent change from baseline to Week 12, LS mean difference vs. placebo” value (Week 12, On-treatment) was “placebo of −65.5%”. For the same substance, the “Calculated LDL-C percent change … (SE)” value (Week 16) was −64.5%, the “Calculated LDL-C percent change, LS mean difference vs placebo” value [4] was −66.0% and the “Calculated LDL-C, LS mean percent change from baseline” value [4] was −62.7%. The “Calculated LDL-C percent change, LS mean difference vs placebo” value [5] was −58.0%, the “Calculated LDL-C, LS mean percent change from baseline” value [5] was −59.4% and the “Calculated LDL-C percent change, LS mean difference vs placebo” value (Week 24, men) was −64.7%. For the same substance, the “Calculated LDL-C, LS mean percent change from baseline” value (Week 24, men) was −65.5% and the “Calculated LDL-C percent change, treatment effect versus placebo” value (Week 24, patients with baseline LDL-C <100 mg/dL) was −75.0%.
